Holding throughout (test): NCI anticancer screen, dose series, 48 h
Test [1] concerns SNB-19.
The test system of test [2] is SF-268.
In test [3] the test system is CAKI-1.
For test [4], the system named is OVCAR-8.
Test [5] has as its system SK-MEL-28.
Test [6] has as its system IGROV-1.
The test system of test [7] is RPMI-8226.
Test [8] deals with RXF 393.
Test [9] has as its system TK-10.
The test system of test [10] is CCRF-CEM.
Test [11] relates to HCT-15.
Test [12] deals with HCT-116.
For test [13], the system named is LOX IMVI.
The test system of test [14] is HL-60.
The test system of test [15] is SF-295.
The test system of test [16] is KM12.
Test [17] relates to HOP-92.
Test [18] relates to OVCAR-4.
In test [19] the test system is SNB-75.

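1) Cells in 96-well plates. 2) Compound, 48 h, 5 concentrations. 3) Linear interpolation between surrounding doses. 4) Unreached endpoint = highest concentration. GI50 marks 50% less growth.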 Active and inactive are the calls of the source. Rule as the data show it: active = GI50 up to about 1.1 µM and inactive = higher. Where only a bound is given, the exact number is not on record here.

As for `COC(=O)C(CC(=O)c1cc2c(cc1I)OCO2)Cc1cc(OC)c(OC)c(OC)c1I` (stereo not given), the GI50 in test [1] is > 100 µM (inactive); in [2], > 100 µM (inactive); in test [3] it was 25 µM (inactive); in test [4] it was > 100 µM (inactive); in test [5], > 100 µM (inactive); in [6] it was > 100 µM (inactive). For the same compound, the GI50 is 8.13 µM (inactive) in [7]; 73.5 µM (inactive) in test [8]; > 100 µM (inactive) in test [9]; > 100 µM (inactive) in test [10]; over 100 µM in test [11]; 19.2 µM (inactive) in test [12]. The GI50 was > 100 µM (inactive) in test [13]; 16.7 µM (inactive) in test [14]; 16.8 µM (inactive) in test [15]; 71.6 µM (inactive) in test [16]; 14.3 µM (inactive) in test [17].
`CCCCCCCCOCC(O)COC(=O)CCCCCCC` (stereo not given): the GI50 in [1] was > 100 µM (inactive); in test [2] it was 95.5 µM (inactive); in test [3], > 100 µM (inactive); in test [4], > 100 µM (inactive); in test [5], > 100 µM (inactive); in test [6] it was > 100 µM (inactive). Further, the GI50 in test [7] was 27.1 µM (inactive); in test [9], > 100 µM (inactive); in [10], 12.1 µM (inactive); in test [11] it was over 100 µM; in [12], > 100 µM (inactive); in test [13], > 100 µM (inactive). For the same compound, the GI50 is 32.4 µM (inactive) in test [14], > 100 µM (inactive) in test [15], 34.4 µM (inactive) in test [18] and 25.2 µM (inactive) in test [17].
Turning to `Nc1ccc(N)c2c1C(=O)c1ccccc1C2=O`, the GI50 in test [1] was > 100 µM (inactive); in test [2], 51.3 µM (inactive); in [3], 4.57 µM (inactive); in test [4] it was 76.2 µM (inactive); in [19] it was > 100 µM (inactive); in test [5], > 100 µM (inactive). For the same compound, the GI50 was 6.44 µM (inactive) in test [6]; 9.16 µM (inactive) in test [7]; 4.08 µM (inactive) in test [9]; 32.1 µM (inactive) in test [10]; 4.41 µM in test [11]; 11.1 µM (inactive) in test [12]. The GI50 was 9.02 µM (inactive) in [13], 4.54 µM (inactive) in test [16], > 100 µM (inactive) in test [18] and 36.2 µM (inactive) in [17].
Regarding `CCOC(=O)/C(=C/c1ccco1)P(=O)(OCC)OCC`, the GI50 in test [2], in test [3], in [4], in test [19], in test [5] and in test [6] was > 100 µM (inactive) throughout. Besides, the GI50 in [7] was > 100 µM (inactive); in test [9] it was > 100 µM (inactive); in [10] it was > 100 µM (inactive); in [11], over 100 µM; in test [12], > 100 µM (inactive); in [13], > 100 µM (inactive). Also, the GI50 in [14], in test [15], in test [16], in test [18] and in [17] was > 100 µM (inactive) in each case.
For `CCOc1ccccc1NC(=O)CCc1nnc(S)[nH]1`, the GI50 in test [1], in [2], in [3], in [4], in test [5] and in test [6] was > 100 µM (inactive) in each case. Also, the GI50 in test [7] is > 100 µM (inactive); in [8] it was > 100 µM (inactive); in [9], > 100 µM (inactive); in test [10], > 100 µM (inactive); in [11], over 100 µM; in test [12], > 100 µM (inactive). Besides, the GI50 in test [13], in [14], in test [15], in test [16], in test [18] and in test [17] was > 100 µM (inactive) throughout.
For `COc1cc(C2C(Cl)C(=O)N2NC(=O)c2ccc(NC(C)=O)cc2)cc(Br)c1O` (stereo not given), the GI50 in test [1], in test [2], in test [4], in test [19], in test [5] and in test [6] was > 100 µM (inactive) throughout. Moreover, the GI50 in [7], in test [9], in test [10], in test [12], in [14] and in [15] was > 100 µM (inactive) each time. The GI50 in test [16] and in [17] was > 100 µM (inactive) throughout.
`O=C1Sc2ccccc2C(=O)N2CCSC12` (stereo not given): the GI50 in test [1] was > 100 µM (inactive); in test [4] it was > 100 µM (inactive); in test [5], > 100 µM (inactive); in [6], > 10 µM (inactive); in test [7] it was > 100 µM (inactive); in test [8] it was > 100 µM (inactive). Moreover, the GI50 is > 100 µM (inactive) in test [9]; > 100 µM (inactive) in [10]; over 100 µM in test [11]; > 100 µM (inactive) in test [12]; > 100 µM (inactive) in [13]; 82.6 µM (inactive) in test [14]. Moreover, the GI50 in [15], in test [16] and in test [17] was > 100 µM (inactive) each time.
Regarding `Cc1nc2c(n1-c1ccccc1)C(=O)c1ccccc1C2=O`, the GI50 in test [1] was 50.2 µM (inactive); in test [2], 54.8 µM (inactive); in [3] it was 70.8 µM (inactive); in test [4] it was 42.4 µM (inactive); in test [19], > 100 µM (inactive); in test [5], 96.2 µM (inactive). The GI50 in test [8] was 75.2 µM (inactive); in [9], > 100 µM (inactive); in [10], 32.1 µM (inactive); in [11], 20.6 µM; in test [12], 22.2 µM (inactive); in test [14] it was 14.7 µM (inactive). Besides, the GI50 is 38.4 µM (inactive) in test [15], 50.2 µM (inactive) in test [16] and 28.2 µM (inactive) in test [18].
For `Cc1cc(O)c(C(=O)CC2(O)C(=O)Nc3c(Cl)cc(Cl)cc32)c(=O)o1` (stereo not given), the GI50 in [1] is > 100 µM (inactive); in [2], > 100 µM (inactive); in [3], > 100 µM (inactive); in [4], > 100 µM (inactive); in test [19], 26.6 µM (inactive); in test [5], > 100 µM (inactive). The GI50 in test [6] is > 100 µM (inactive); in test [7], 55.5 µM (inactive); in [9] it was > 100 µM (inactive); in test [10], 63 µM (inactive); in [11], over 100 µM; in [12] it was > 100 µM (inactive). Also, the GI50 in test [14], in test [15], in test [16], in test [18] and in test [17] was > 100 µM (inactive) throughout.
Consider `NCc1ccccc1C1CSCSC1`, for which the GI50 was > 100 µM (inactive) in [2]; > 100 µM (inactive) in test [4]; > 100 µM (inactive) in test [19]; > 100 µM (inactive) in [5]; 39.8 µM (inactive) in test [8]; > 100 µM (inactive) in [9]. For the same compound, the GI50 was > 100 µM (inactive) in test [10]; over 100 µM in test [11]; > 100 µM (inactive) in test [12]; > 100 µM (inactive) in [13]; > 100 µM (inactive) in test [14]; > 100 µM (inactive) in test [15]. In addition, the GI50 in test [16] and in test [18] was > 100 µM (inactive) in each case.
Consider `COC(=O)CC(=O)OSc1ccccc1`, for which the GI50 was 41.7 µM (inactive) in [1]; 7.71 µM (inactive) in test [6]; 15.7 µM (inactive) in test [7]; 10.4 µM (inactive) in [8]; 43 µM (inactive) in test [9]; 3.76 µM (inactive) in test [10]. For the same compound, the GI50 is 12.9 µM (inactive) in test [12]; 12.6 µM (inactive) in test [13]; 27.5 µM (inactive) in test [15]; 25.5 µM (inactive) in [16]; 28.6 µM (inactive) in [18]; 17.7 µM (inactive) in test [17].
As to `Oc1cc(-c2ccc(Oc3ccccc3)cc2)nc2cc3c(cc12)OCO3`, the GI50 was > 100 µM (inactive) in test [1]; > 100 µM (inactive) in test [2]; > 100 µM (inactive) in [4]; 27.2 µM (inactive) in test [19]; > 100 µM (inactive) in test [5]; > 100 µM (inactive) in test [6]. The GI50 in test [7] was > 100 µM (inactive); in test [8] it was 57.5 µM (inactive); in [9], > 100 µM (inactive); in test [10] it was > 100 µM (inactive); in test [11] it was over 100 µM; in test [12] it was > 100 µM (inactive). Moreover, the GI50 in test [13], in [14], in [15] and in test [18] was > 100 µM (inactive) each time.
With `O=C1c2ccccc2C2(O)NC(=S)N(c3ccccc3)C12O` (stereo not given), the GI50 in test [1], in test [2], in test [3], in test [4], in test [19] and in test [5] was > 100 µM (inactive) in each case. Also, the GI50 in test [6] was > 100 µM (inactive); in test [7], > 100 µM (inactive); in test [9], > 100 µM (inactive); in test [10], > 100 µM (inactive); in test [11] it was over 100 µM; in test [12], > 100 µM (inactive). The GI50 in test [13], in test [14], in test [15], in test [16], in test [18] and in [17] was > 100 µM (inactive) in each case.

The record behind these values is ChEMBL document CHEMBL1201862, “PubChem BioAssay data set” (2004).
